The source of these data is US11311523B2, “Pyridinone compound and use thereof” (KYUSHU UNIVERSITY, NATIONAL UNIVERSITY CORPORATION, priority 2015, dated 2022).

Assay [1] concerns mouse lung carcinoma cell line (3LL). The experiment in a line: cellular invasion inhibition assay (Matrigel chamber). It counts as cell-based. The conditions noted are these: 3LL cells, 22 hours, compared to DMSO. As for the experimental part: Pharmacological Test 2 (Cellular Invasion Inhibition Assay)
Three hundred microliters of a suspension of a mouse lung carcinoma cell line (3LL), a human fibrosarcoma cell line (HT-1080), or a human colon cancer cell line (DLD-1) in DMEM (serum free) was placed in the upper chamber with Matrigel (BD Biosciences) equilibrated with DMEM (serum free) for 120 minutes, while 500 μL of DMEM (with 10% FCS) was placed in the lower chamber. Each pyridinone compound or CPYPP dissolved at a predetermined concentration in DMSO was added to the culture media in both the upper and lower chambers. As a control, DMSO alone was added to the media. In all of the experiments, the final DMSO concentration was adjusted to 0.2%.
After the resulting products were cultured at 37° C. under 5% CO2 for 22 hours, the chambers were removed, and the culture media were removed. […] After staining, the inserts were cut out with a blade to prepare slides, and the cells were counted under an optical microscope.
The results were evaluated based on percent cell invasion (%: Invasion) and percent inhibition (%: inhibition). The percent cell invasion was obtained by converting the number of invading cells under each condition to percentage, taking the number of invading cells in the control, to which DMSO was added alone, as 100%; and the percent inhibition was obtained by deducting the percent cell invasion from 100.

Assay [2] deals with primary mouse embryonic fibroblasts (MEFs). The experiment in a line: inhibition of ruffle formation after PDGF stimulation. It counts as cell-based. Particulars: 1 hour pretreatment. The source says: Pharmacological Test 4 (Experiment on Inhibition of Ruffle Formation in Primary Mouse Embryonic Fibroblasts)
As disclosed in NPL 2, stimulation of primary mouse embryonic fibroblasts (MEFs) with a growth factor, such as PDGF, induces actin cytoskeletal remodeling, leading to the formation of two types of characteristic cellular membrane structures, peripheral ruffles and dorsal ruffles.
The peripheral ruffle and dorsal ruffle formation depends on Rac activation and requires the functions of DOCK1 and DOCK5. Importantly, it is known that the peripheral ruffle formation requires the functions of both DOCK1 and DOCK5 while the dorsal ruffle formation requires the function of DOCK1.
Therefore, the use of various pyridinone compounds in this assay system enables cell-level verification of DOCK1 selectivity.
Wild-type MEFs or MEFs from DOCK1-deficient (D1KO) mouse (obtained by the method disclosed in NPL 2) were suspended in DMEM (with 10% FBS) to a concentration of 2×10^4 cells/mL, and 150 μL of the resulting product was seeded on the glass portion of fibronectin-coated glass-bottom culture dishes.
After 36-hour culture at 37° C., the medium was changed to DMEM (serum free) containing 0.1% BSA, and 12-hour culture was performed to allow the cells to be serum-starved. Subsequently, the medium was changed to 100 μL of DMEM (serum free) containing DMSO in which each pyridinone compound or CPYPP was dissolved at a predetermined concentration, followed by pretreatment for 1 hour. A control was prepared using a culture medium to which DMSO was added alone. In all of the experiments, the final concentration of DMSO was adjusted to 0.2%.
Thereafter, 100 μL of DMEM that was warmed beforehand to 37° C. (serum free, containing 60 ng/mL of PDGF) was added to the above pretreated cells to stimulate the cells, followed by incubation at 37° C. for 7 minutes and further incubation at room temperature for 10 minutes in 150 μL of 4% paraformaldehyde solution to fix the cells. Then, PBS (containing 0.2% Triton X-100) was added to the fixed cells, and a 5-min incubation at room temperature was performed to permeabilize the cellular membranes. Thereafter, the cells were blocked with BSA, and the actin cytoskeleton was stained with Alexa Fluor 546-labeled phalloidin. Using a Zeiss LSM510 meta confocal laser scanning microscope, the number of cells in which peripheral ruffles and dorsal ruffles were formed was observed and counted.

Assay [3] deals with T1, DHR-2 domain of DOCK1 (Homo sapiens, UniProt Q14185).
T1 construct: Polypeptide fragments that correspond to the DHR-2 domain of DOCK1, DOCK2, or DOCK5; Histidine-SUMO (N); made in house; host or cells: E. coli Arctic express (DE3)
T1 sequence (Q14185 1207-1617 limits assumed): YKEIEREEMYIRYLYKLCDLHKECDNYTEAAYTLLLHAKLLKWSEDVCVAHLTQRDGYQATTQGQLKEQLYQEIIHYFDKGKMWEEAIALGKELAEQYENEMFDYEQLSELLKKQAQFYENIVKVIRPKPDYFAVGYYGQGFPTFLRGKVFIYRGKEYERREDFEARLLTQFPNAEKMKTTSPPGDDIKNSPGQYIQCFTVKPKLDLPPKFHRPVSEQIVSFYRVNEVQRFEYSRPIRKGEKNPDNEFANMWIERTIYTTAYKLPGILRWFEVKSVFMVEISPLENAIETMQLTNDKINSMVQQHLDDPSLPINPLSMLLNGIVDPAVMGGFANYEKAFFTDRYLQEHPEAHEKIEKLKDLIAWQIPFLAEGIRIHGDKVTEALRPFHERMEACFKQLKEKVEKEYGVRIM
The experiment in a line: in vitro GEF assay (Bodipy-FL-GTP loading of Rac). The class given is biochemical. From the text:
(§1) Pharmacological Test 1 (In Vitro GEF Assay)
(§2) DOCK1, DOCK2, and DOCK5, which are DOCK-A subfamily members, catalyze the GTP-GDP exchange reaction for Rac via the DHR-2 domain to activate Rac.
(§3) The in vitro GEF assay referred to in this specification used a labeled GTP (Bodipy-FL-GTP, Invitrogen), whose fluorescence intensity increases when bound to Rac.
(§4) Polypeptide fragments that correspond to the DHR-2 domain of DOCK1, DOCK2, or DOCK5 were expressed in E. coli Arctic express (DE3) cells as N-terminal Histidine-SUMO tag-fused recombinant proteins and purified by affinity column chromatography on nickel-NTA columns.
(§5) Rac was expressed in E. coli BL21 (DE3) cells as an N-terminal GST tag-fused recombinant protein and purified by affinity column chromatography on glutathione-Sepharose columns.
(§6) Subsequently, a reaction solution A containing 20 mM of MES-NaOH, 150 mM of NaCl, 10 mM of MgCl2, and 20 μM of GDP, and having an adjusted pH of 7.0 was incubated at room temperature for 30 minutes while being protected from light in the presence of each of the polypeptide fragments (DHR-2 domains) prepared above and each pyridinone compound or CPYPP dissolved at a predetermined concentration in DMSO or DMSO alone (control) to thus prepare GEF pretreated products. In all of the samples, the final DMSO concentration was adjusted to 3%.
(§7) Thereafter, 15 μM of Rac prepared above was added to the reaction solution A and directly allowed to stand on ice for 30 minutes to form a GDP-Rac complex.
(§8) Bodipy-FL-GTP was added to 100 μL of the reaction solution A containing the thus prepared GDP-Rac complex to a concentration of 3.6 μM, followed by equilibration at 30° C. for 2 minutes. After equilibration, 50 μL of the pretreated GEF was added for reaction at 30° C.
(§9) Changes in fluorescence intensity of Bodipy-FL-GTP were monitored during the reaction using an XS-N (Molecular Devices) or an Enspire spectrofluorometer (Perkin Elmer) (excitation wavelength: 488 nm, emission wavelength: 514 nm). The measured values were corrected so that the fluorescence intensity at the time that the reaction was initiated (0 seconds) was 0.
(§10) Then, an approximate curve (hyperbola) was obtained by plotting the calculated correction values on the y axis and the time (t) on the x axis using GraphPad Prism5 (GraphPad software), and the slope at t=0 to 10 seconds was considered to be an initial velocity of guanine nucleotide exchange reaction. The IC50 value was calculated taking the initial reaction velocity of the control, to which only a solvent (DMSO) was added, as 100%.

Assay [4] deals with T2, DHR-2 domain of DOCK5 (Homo sapiens, UniProt Q9H7D0).
T2 construct: Polypeptide fragments that correspond to the DHR-2 domain of DOCK1, DOCK2, or DOCK5; Histidine-SUMO (N); made in house; host or cells: E. coli Arctic express (DE3)
Nature of the assay: in vitro GEF assay (Bodipy-FL-GTP loading of Rac). It counts as biochemical. Particulars: FIG. 11.
From the text: as §1, §2, §3, §4, §5, §6, §7, §8, §9, §10

Assay [5] deals with T3, DHR-2 domain of DOCK2 (Homo sapiens, UniProt Q92608).
T3 construct: Polypeptide fragments that correspond to the DHR-2 domain of DOCK1, DOCK2, or DOCK5; Histidine-SUMO (N); made in house; host or cells: E. coli Arctic express (DE3)
T3 sequence (Q92608 1211-1622 limits assumed): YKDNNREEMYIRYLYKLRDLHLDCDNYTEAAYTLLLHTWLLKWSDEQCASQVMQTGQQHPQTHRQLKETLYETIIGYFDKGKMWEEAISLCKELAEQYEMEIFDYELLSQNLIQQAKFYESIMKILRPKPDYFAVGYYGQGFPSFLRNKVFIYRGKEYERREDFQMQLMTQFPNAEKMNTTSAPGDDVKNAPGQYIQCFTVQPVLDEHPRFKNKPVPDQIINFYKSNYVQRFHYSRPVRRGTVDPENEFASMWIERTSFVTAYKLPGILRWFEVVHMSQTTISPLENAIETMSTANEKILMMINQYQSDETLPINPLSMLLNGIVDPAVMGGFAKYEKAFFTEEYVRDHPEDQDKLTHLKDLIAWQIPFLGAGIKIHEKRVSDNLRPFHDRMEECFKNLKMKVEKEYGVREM
Nature of the assay: in vitro GEF assay (Bodipy-FL-GTP loading of Rac). The conditions noted are these: FIG. 11. It counts as biochemical.
From the text: as §1, §2, §3, §4, §5, §6, §7, §8, §9, §10

The term IC50 denotes the concentration needed to halve the response being measured. Read a high IC50 as a need for much substance.

T2 sequence (Q9H7D0 1231-1642 limits assumed): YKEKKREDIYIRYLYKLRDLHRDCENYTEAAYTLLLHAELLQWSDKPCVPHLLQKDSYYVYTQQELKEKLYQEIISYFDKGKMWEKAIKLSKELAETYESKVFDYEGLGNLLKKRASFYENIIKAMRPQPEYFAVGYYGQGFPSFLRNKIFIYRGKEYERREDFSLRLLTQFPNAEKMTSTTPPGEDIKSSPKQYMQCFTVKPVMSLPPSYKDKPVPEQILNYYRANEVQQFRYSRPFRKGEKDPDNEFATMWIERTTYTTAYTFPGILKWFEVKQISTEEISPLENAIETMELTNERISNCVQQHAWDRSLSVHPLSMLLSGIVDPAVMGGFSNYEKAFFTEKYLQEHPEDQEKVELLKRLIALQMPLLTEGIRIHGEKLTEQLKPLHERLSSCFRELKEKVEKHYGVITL

Consider `O=C(Cn1cc(S(=O)(=O)N2CCCC2)ccc1=O)c1ccc(-c2ccc(C(F)(F)F)cc2)cc1` [TS-16, 1-(2-oxo-2-(4′-(trifluoromethyl)-[1,1′-biphenyl]-4-yl)ethyl)-5-(pyrrolidin-1-ylsulfonyl)pyridin-2(1H)-one], for which the “inhibition of cancer cell (3LL) invasion” value in assay [1] was “significantly excellent inhibitory effect”.
Take `O=C1NN(c2ccccc2)C(=O)C1=CC=Cc1ccccc1Cl` [CPYPP, reference compound]: in assay [2], the dorsal ruffle formation result was “inhibited both peripheral ruffle formation and dorsal ruffle formation”. For the same compound, the peripheral ruffle formation result in assay [2] was “inhibited both peripheral ruffle formation and dorsal ruffle formation”. Besides, the IC50 in assay [3] (FIG. 11) is 20 µM; in assay [4], 14.8 µM; in assay [5], 39 µM. Moreover, the “selectivity of GEF inhibition to DOCK1 versus DOCK2 and DOCK5” value in assay [3] (from IC50 values for DOCK1, DOCK2, DOCK5) is given as “no selectivity”.
With `Cc1cc(C(=O)Cn2cc(S(=O)(=O)N3CCCC3)ccc2=O)c(C)n1Cc1ccc(F)cc1` [Compound T-070444, 1-(2-(1-(4-fluorobenzyl)-2,5-dimethyl-1H-pyrrol-3-yl)-2-oxoethyl)-5-(pyrrolidin-1-ylsulfonyl)pyridin-2(1H)-one], in assay [2], the dorsal ruffle formation entry is “significantly inhibited” and the peripheral ruffle formation result is listed as “occurred in a similar manner to that of the control”.
